Results published in patent publication US8952024B2, “Herbicidal pyrimidone derivatives” (E I du Pont de Nemours and Company, priority 2009, dated 2015).

Tests used:
Experiment in all cases: Test B pre-/postemergence plant response
Type in all cases: in vivo
[1] = tested on: Italian ryegrass (Lolium multiflorum)
In short: (§1)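 Pre-em in loam/sand; post-em at 1–4 leaf (2–18 cm) in peat mix. Solvent + surfactant formulation. Greenhouse 13–15 d; visual % control vs untreated, 0–100.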

[2] = tested on: Surinam grass (Brachiaria decumbens)
In short: as §1

[3] = tested on: bermudagrass (Cynodon dactylon)
In short: as §1

[4] = tested on: blackgrass (Alopecurus myosuroides)
In short: as §1

[5] = tested on: cocklebur (Xanthium strumarium); settings: for Cocklebur plant response rating: scale 0 to 100
In short: as §1

[6] = tested on: corn (Zea mays)
In short: as §1

[7] = tested on: downy bromegrass (Bromus tectorum)
In short: as §1

[8] = tested on: green foxtail (Setaria viridis)
In short: as §1

[9] = tested on: kochia (Kochia scoparia); settings: Postemergence; for Plant response rating, Kochia: scale 0 (no effect) to 100 (complete control); for Kochia plant response rating: 250 g ai/ha, scale 0 to 100
In short: as §1

[10] = tested on: lambsquarters (Chenopodium album)
In short: as §1

[11] = tested on: large crabgrass (Digitaria sanguinalis)
In short: as §1

[12] = tested on: pigweed (Amaranthus retroflexus)
In short: as §1

[13] = tested on: ragweed (common ragweed, Ambrosia elatior)
In short: as §1

[14] = tested on: soybean (Glycine max)
In short: as §1

[15] = tested on: velvetleaf (Abutilon theophrasti)
In short: as §1

[16] = tested on: wild oat (Avena fatua)
In short: as §1

[17] = tested on: yellow nutsedge (Cyperus esculentus)
In short: as §1

[18] = 250 g ai/ha, Preemergence, 0 to 100 scale
[19] = Postemergence, 62 g ai/ha, scale 0 (no effect) to 100 (complete control), 13 to 15 days
[20] = Postemergence, 125 g ai/ha, visual rating after 13 to 15 days, scale 0 (no effect) to 100 (complete control)
[21] = Preemergence, 31 g ai/ha, scale 0 to 100 (0 no effect, 100 complete control)
[22] = Preemergence, 125 g ai/ha, 0 to 100 scale
[23] = Postemergence, 31 g ai/ha, scale 0 to 100 (0 no effect, 100 complete control)
[24] = Postemergence, 250 g ai/ha, scale 0 to 100
[25] = Preemergence, 62 g ai/ha, scale 0 to 100, 0 no effect, 100 complete control
[26] = 125 g ai/ha, visual rating after 13 to 15 days

Cc1ccc(-n2c(-c3cccc(Cl)c3)ncc(C(=O)C3=C(O)CCCC3=O)c2=O)cc1 [Compound 39]
50: Plant response rating, Bermudagrass [3, 23]
85: Plant response rating, Bermudagrass [3, 20] | Plant response rating, Bermudagrass [3, 21] | Plant response rating, Crabgrass, Large [11, 20] | Plant response rating, Ragweed [13, 19]
100: Plant response rating, Bermudagrass [3, 18] | Bermudagrass plant response rating [3, 24] | Plant response rating, Bermudagrass [3, 25] | Bermudagrass plant response rating [3, 22] | Plant response rating, Foxtail, Green [8, 18] | Plant response rating, Lambsquarters [10, 18] | Plant response rating, Lambsquarters [10, 20] | Lambsquarters plant response rating [10, 24] | Plant response rating, Lambsquarters [10, 21] | Plant response rating, Lambsquarters [10, 25] | Lambsquarters plant response rating [10, 22] | Plant response rating, Crabgrass, Large [11, 18] | Crabgrass, Large plant response rating [11, 22] | Plant response rating, Pigweed [12, 18] | Plant response rating, Pigweed [12, 19] | Plant response rating, Pigweed [12, 20] | Pigweed plant response rating [12, 22]
55: Plant response rating, Crabgrass, Large [11, 21]
45: Plant response rating, Cocklebur [5, 18] | Plant response rating, Corn [6, 19] | Plant response rating, Corn [6, 20] | Plant response rating, Kochia ([9]; 62 g ai/ha, 13 to 15 days)
30: Plant response rating, Oat, Wild [16, 20]
5: Plant response rating, Ryegrass, Italian [1, 19] | Plant response rating, Ryegrass, Italian [1, 20]
80: Plant response rating, Foxtail, Green [8, 23] | Plant response rating, Foxtail, Green [8, 19] | Plant response rating, Crabgrass, Large [11, 19] | Plant response rating, Velvetleaf [15, 19] | Plant response rating, Velvetleaf [15, 20]
95: Plant response rating, Cocklebur [5, 20] | Kochia plant response rating [9] | Plant response rating, Lambsquarters [10, 19] | Plant response rating, Crabgrass, Large [11, 25] | Plant response rating, Ragweed [13, 18] | Plant response rating, Ragweed [13, 20] | Plant response rating, Soybean [14, 19]
65: Plant response rating, Surinam Grass [2, 19] | Plant response rating, Surinam Grass [2, 20] | Corn plant response rating [6, 24]
60: Plant response rating, Bermudagrass [3, 19] | Plant response rating, Kochia [9, 26]
0: Plant response rating, Ryegrass, Italian [1, 18] | Plant response rating, Ryegrass, Italian [1, 21] | Ryegrass, Italian plant response rating [1, 22] | Plant response rating, Surinam Grass [2, 21] | Plant response rating, Blackgrass [4, 18] | Plant response rating, Blackgrass [4, 23] | Plant response rating, Blackgrass [4, 19] | Plant response rating, Blackgrass [4, 20] | Plant response rating, Blackgrass [4, 21] | Plant response rating, Blackgrass [4, 25] | Blackgrass plant response rating [4, 22] | Plant response rating, Cocklebur [5, 21] | Plant response rating, Corn [6, 18] | Plant response rating, Corn [6, 21] | Plant response rating, Corn [6, 25] | Corn plant response rating [6, 22] | Plant response rating, Bromegrass, Downy [7, 18] | Plant response rating, Bromegrass, Downy [7, 23] | Plant response rating, Bromegrass, Downy [7, 19] | Plant response rating, Bromegrass, Downy [7, 20] | Bromegrass, Downy plant response rating [7, 24] | Plant response rating, Bromegrass, Downy [7, 21] | Plant response rating, Bromegrass, Downy [7, 25] | Bromegrass, Downy plant response rating [7, 22] | Plant response rating, Ragweed [13, 21] | Plant response rating, Soybean [14, 18] | Plant response rating, Soybean [14, 21] | Soybean plant response rating [14, 22] | Plant response rating, Oat, Wild [16, 18] | Plant response rating, Oat, Wild [16, 21] | Oat, Wild plant response rating [16, 22] | Plant response rating, Nutsedge, Yellow [17, 19] | Plant response rating, Nutsedge, Yellow [17, 21] | Nutsedge, Yellow plant response rating [17, 22]
10: Surinam Grass plant response rating [2, 22] | Plant response rating, Nutsedge, Yellow [17, 18]
15: Plant response rating, Surinam Grass [2, 18] | Plant response rating, Velvetleaf [15, 21] | Plant response rating, Nutsedge, Yellow [17, 20]
90: Plant response rating, Foxtail, Green [8, 20] | Foxtail, Green plant response rating [8, 24] | Crabgrass, Large plant response rating [11, 24] | Plant response rating, Pigweed [12, 21]
75: Plant response rating, Cocklebur [5, 23] | Plant response rating, Cocklebur [5, 19] | Foxtail, Green plant response rating [8, 22] | Plant response rating, Crabgrass, Large [11, 23] | Ragweed plant response rating [13, 22] | Velvetleaf plant response rating [15, 22]
20: Blackgrass plant response rating [4, 24] | Plant response rating, Oat, Wild [16, 19]
98: Cocklebur plant response rating ([5]; Postemergence, 250 g ai/ha) | Plant response rating, Soybean [14, 20] | Plant response rating, Velvetleaf [15, 18]
25: Plant response rating, Corn [6, 23]

Cc1cccc(-n2c(-c3cccc(Cl)c3)ncc(C(=O)C3=C(O)CCCC3=O)c2=O)c1 [Compound 45]
15: Plant response rating, Kochia [9, 26]
75: Plant response rating, Surinam Grass [2, 19] | Plant response rating, Crabgrass, Large [11, 19] | Plant response rating, Crabgrass, Large [11, 20]
0: Plant response rating, Ryegrass, Italian [1, 18] | Plant response rating, Ryegrass, Italian [1, 21] | Ryegrass, Italian plant response rating [1, 22] | Plant response rating, Blackgrass [4, 21] | Plant response rating, Blackgrass [4, 25] | Blackgrass plant response rating [4, 22] | Plant response rating, Corn [6, 18] | Plant response rating, Corn [6, 21] | Plant response rating, Corn [6, 25] | Corn plant response rating [6, 22] | Plant response rating, Bromegrass, Downy [7, 21] | Plant response rating, Bromegrass, Downy [7, 25] | Bromegrass, Downy plant response rating [7, 22] | Plant response rating, Foxtail, Green [8, 21] | Plant response rating, Kochia ([9]; 62 g ai/ha, 13 to 15 days) | Plant response rating, Soybean [14, 18] | Plant response rating, Soybean [14, 21] | Soybean plant response rating [14, 22] | Plant response rating, Velvetleaf [15, 21] | Plant response rating, Oat, Wild [16, 21] | Oat, Wild plant response rating [16, 22] | Plant response rating, Nutsedge, Yellow [17, 21]
60: Plant response rating, Corn [6, 20] | Plant response rating, Oat, Wild [16, 20]
65: Plant response rating, Crabgrass, Large [11, 23]
5: Plant response rating, Blackgrass [4, 18] | Plant response rating, Blackgrass [4, 23] | Plant response rating, Blackgrass [4, 19] | Plant response rating, Bromegrass, Downy [7, 18] | Plant response rating, Oat, Wild [16, 18]
90: Plant response rating, Velvetleaf [15, 20]
95: Plant response rating, Surinam Grass [2, 20] | Plant response rating, Bermudagrass [3, 20] | Cocklebur plant response rating ([5]; Postemergence, 250 g ai/ha) | Foxtail, Green plant response rating [8, 24] | Plant response rating, Crabgrass, Large [11, 25] | Plant response rating, Ragweed [13, 18] | Plant response rating, Ragweed [13, 20] | Plant response rating, Soybean [14, 19] | Plant response rating, Velvetleaf [15, 18]
70: Plant response rating, Cocklebur [5, 20] | Plant response rating, Nutsedge, Yellow [17, 18]
25: Blackgrass plant response rating [4, 24]
100: Plant response rating, Bermudagrass [3, 18] | Bermudagrass plant response rating [3, 24] | Plant response rating, Bermudagrass [3, 25] | Bermudagrass plant response rating [3, 22] | Plant response rating, Foxtail, Green [8, 18] | Plant response rating, Lambsquarters [10, 18] | Plant response rating, Lambsquarters [10, 20] | Lambsquarters plant response rating [10, 24] | Plant response rating, Lambsquarters [10, 21] | Plant response rating, Lambsquarters [10, 25] | Lambsquarters plant response rating [10, 22] | Plant response rating, Crabgrass, Large [11, 18] | Crabgrass, Large plant response rating [11, 22] | Plant response rating, Pigweed [12, 18] | Plant response rating, Pigweed [12, 20] | Pigweed plant response rating [12, 22]
10: Plant response rating, Blackgrass [4, 20] | Plant response rating, Cocklebur [5, 23] | Plant response rating, Corn [6, 23] | Plant response rating, Bromegrass, Downy [7, 23] | Plant response rating, Nutsedge, Yellow [17, 19]
50: Plant response rating, Cocklebur [5, 19] | Bromegrass, Downy plant response rating [7, 24] | Plant response rating, Foxtail, Green [8, 23]
20: Plant response rating, Bromegrass, Downy [7, 19] | Nutsedge, Yellow plant response rating [17, 22]
55: Plant response rating, Oat, Wild [16, 19]
35: Plant response rating, Ryegrass, Italian [1, 20]
80: Plant response rating, Bermudagrass [3, 23] | Corn plant response rating [6, 24] | Plant response rating, Foxtail, Green [8, 19] | Plant response rating, Foxtail, Green [8, 25] | Foxtail, Green plant response rating [8, 22] | Ragweed plant response rating [13, 22] | Plant response rating, Velvetleaf [15, 19]
30: Plant response rating, Ryegrass, Italian [1, 19]
98: Plant response rating, Surinam Grass [2, 18] | Surinam Grass plant response rating [2, 22] | Plant response rating, Bermudagrass [3, 21] | Kochia plant response rating [9] | Plant response rating, Lambsquarters [10, 19] | Plant response rating, Pigweed [12, 19] | Plant response rating, Soybean [14, 20]
85: Plant response rating, Bermudagrass [3, 19] | Plant response rating, Foxtail, Green [8, 20] | Crabgrass, Large plant response rating [11, 24] | Plant response rating, Pigweed [12, 21] | Plant response rating, Ragweed [13, 19] | Velvetleaf plant response rating [15, 22]
45: Plant response rating, Surinam Grass [2, 21] | Plant response rating, Corn [6, 19] | Plant response rating, Bromegrass, Downy [7, 20] | Plant response rating, Crabgrass, Large [11, 21] | Plant response rating, Ragweed [13, 21] | Plant response rating, Nutsedge, Yellow [17, 20]
